Test results: a melting point compilation (Tetko et al.; mined from patent text by program, amines drawn as free bases though some values may be those of a salt)

melting point [°C] | Structure (SMILES)
142 to 144 | O=C(NCC(=O)N1CCC(=C2c3ccccc3C=Cc3ccccc32)CC1)OCc1ccccc1
215 to 218 | CCOC(=O)c1cn2c3c(c(F)c(F)cc3c1=O)CCC2CCl (stereo unspecified)
154 | CCOC(=O)c1cc([N+](=O)[O-])c(Cl)c(S(N)(=O)=O)c1
217 | CSc1ccc2ccc(C(=O)O)cc2c1
49 to 50 | C[C@@H]1CCCN1CCc1ccc2cc(Br)ccc2n1
193 to 195 | CC1=C(C(=O)O)C(c2cccc([N+](=O)[O-])c2)N(C(=O)N(C)C)C(=O)N1 (stereo unspecified)
220 to 222 | Cc1cccc(C)c1NC(=O)NC1(c2cccs2)CCCCC1
106 to 108 | COc1ccc2cc([C@H](C)C(=O)NN)ccc2c1
159 to 162 | CC(=O)CCc1ccc2c(c1)Cc1cc([N+](=O)[O-])ccc1-2
116 to 117 | CCCOc1ccccc1-c1nc2nc(N(CC)CC)ncc2c(=O)[nH]1
206 to 208 | CC(=O)NCC1CN(c2ccc(N3CCN(c4nncs4)CC3)c(F)c2)C(=O)O1 (stereo unspecified)
140 | CC(C)CNC(=O)c1ccc(C2(F)CC2c2ccc(Cl)cc2)cc1 (stereo unspecified)
101 to 102 | COC(=O)[C@@H]1CCCC[C@@H]1C(=O)N(C)CC(=O)NO (relative stereo)
141 to 142 | CCNC(=O)C(C)Oc1ccc(N(C)c2nc3cc(Cl)ccc3o2)cc1 (stereo unspecified)
48 to 49 | CCOc1cc(C(=O)CCCC2CCCCC2)c(O)cc1C
215 | Cc1ccc2c(c1)C=Cc1cc(C)ccc1C2c1cn(-c2cc(N(C)CC(=O)Nc3nc(CC(=O)O)cs3)ncn2)c(=O)[nH]c1=S
111 | C=C(C)Cn1c(=O)n(C)c(=O)c2cc(Cc3ccc(OC)cc3)sc21
162 | CC(=O)Nc1ccc2c(c1)S(=O)(=O)N(CCCCN1CCN(c3ncccn3)CC1)C2=O

melting point [°C] | Structure (SMILES)
227 | O=C(O)CNC1CCCc2ccccc21 (stereo unspecified)
187 to 188 | Cc1c(-c2ccnc(Nc3ccc(C(=O)N4CCOCC4)cc3)n2)cccc1[N+](=O)[O-]
87 to 89 | COC(=O)c1cccc(N2CC(C)=CC2=O)c1
202 to 204 | CN1Cc2c(-c3noc(CN)n3)ncn2-c2ccsc2C1=O
260 to 262 | O=c1[nH]c(=O)n2c3c1cnn3C(c1cccc(C(F)(F)F)c1)=CC2
157 to 159 | CCCNC(=O)c1ccc(-c2ccc3nnn(Cc4ccc5ncccc5c4)c3n2)cc1F
268 | CCOP(=O)(OCC)C1CCc2c(-n3cccc3)c(C(F)(F)F)cc3[nH]c(=O)c(=O)n1c23 (stereo unspecified)
137 to 138 | O=C(OCC1CCCN1)N1CCN(c2cc(N3CCCC3)nc(N3CCCC3)n2)CC1 (single isomer, unassigned; (+))
145 to 150 | CCOCCn1c(N2CCCN(CCC3(c4ccccc4)CCN(C(=O)c4cc(NC(C)=O)ccc4OC)C3)CC2)nc2ccccc21 (stereo unspecified)
210 | COc1cc(C(=O)Nc2ccc3ccc(Cl)nc3n2)cc(OC)c1OC
110 to 112 | O=Cc1ccc(OCCN2CCN(c3cc(Cl)nnc3Cl)CC2)cc1
118 to 119 | CCN(C(=O)c1ccc(Cn2cnc3ccccc32)cc1)C1CCCCC1
180 to 181 | CC1CCCC(C)N1Cc1ccc2cc(NC(=O)c3ccc(-c4ccccc4)cc3)ccc2n1 (stereo unspecified)
174 | CCOC(=O)c1nccn1C1Sc2ccccc2C1=O (stereo unspecified)
> 300 | COc1ccc(C(=O)Nc2nc3cc4c(cc3[nH]2)NC(=O)C4(C)C)cc1
176 to 178 | COCCN(C)Cc1ncc(C(=O)Nc2nc3c(OC)ccc(N4CCOCC4)c3s2)n1C
114 to 115 | COc1ccc(CNc2ncc[nH]2)cc1OC1CCCC1

Second part, the compound before the results:

Structure (SMILES) | melting point [°C]
COc1ccc(NCC(O)CO)cc1 (stereo unspecified) | 151 to 153
CNC(=O)C(Cc1ccccc1)NC(=O)Nc1n[nH]c(=S)s1 (stereo unspecified) | 228
OC(CCc1cccnc1)COc1ccc(OCc2ccccc2)cc1 (stereo unspecified) | 79 to 82
CCOC(=O)CCC(=O)[C@H](Cc1ccccc1)NC(=O)c1ccccc1 | 112 to 114
COCOC1CCC2(C)C(=CCC3C4CCC(=O)C4(C)CCC32)C1 (stereo unspecified) | 130 to 132
CC(C)NCCCCCCOc1ccc(OCc2ccccc2)cc1 | 47 to 49
O=C(O)Cc1cccc2c(=O)cc(-c3cc(F)cc(F)c3)oc12 | 221 to 223
Cc1nnc(-c2ccc(F)cc2F)n2nc(OCc3ncnn3C)c(-c3ccsc3)c12 | 144 to 146
CCN(c1cc(C(=O)OC)c(O)c2ncc(Cc3ccc(F)cc3)cc12)S(C)(=O)=O | 149 to 150
COc1cccc(Cc2cc(F)ccc2O)c1 | 153 to 155
CC1(C)CC(c2ccccc2)=NC1=Cc1ccccc1 | 101 to 103
COc1ccccc1C=C1NC(=O)N(C)C1=O | 189 to 190
Nc1ccccc1C(=O)/C=C/c1nccn1C(c1ccccc1)(c1ccccc1)c1ccccc1 | 142 to 144
CNC(=O)N1N=C(c2ccc(N)cc2)c2cc(Cl)c(Cl)cc2CC1C (stereo unspecified) | 224 to 225
COc1ccc2c(c1)CC=C(C=Cc1ccc(C#N)cc1)O2 | 224 to 226
CCCOC1CC2(C)C(CCC3C2CCC2(C)C(C(=O)CSCCCO)CCC32)CC1O (stereo unspecified) | 133 to 136
NCc1nnc2n1-c1ccc(Cl)cc1C(c1ccccc1)=NC2 | 168 to 172
O=C1c2cccc(OC(F)=C(F)F)c2C(=O)N1c1ccc(OC(F)=C(F)F)cc1 | 172

Structure (SMILES) | melting point [°C]
COc1cc2c(c(Cl)c1Cl)C(=O)C(c1ccccc1)(c1ccccc1)C2 | 172 to 174
O=c1c2cc(F)c(F)cc2n(-c2ccc(F)c(Cl)c2)c(=O)n1OCc1ccccc1 | 184 to 186
CCN(CC)CC#CC(=O)Nc1ccc2ncc(C#N)c(Nc3ccc(F)c(Cl)c3)c2c1 | 117 to 120
NC(=O)C(Sc1ccccc1)c1cccc(C(=O)c2ccc(Cl)cc2)c1N (stereo unspecified) | 189 to 191
CN1CC(c2cccc(Cl)c2)C(=O)C(c2cccc(Cl)c2)C1 (stereo unspecified) | 140
Cc1ccc(-c2cccnc2)nc1 | 40 to 41
CCOC(=O)Nc1cc(-c2ccccc2)n(-c2ccc(S(N)(=O)=O)cc2)n1 | 121 to 128
COc1cccc(-c2ccc3c(c2)C(C)(C)OC(=S)N3)c1 | 142 to 143
O=C(O)/C=C/C=C(c1cccc([N+](=O)[O-])c1)c1cccc([N+](=O)[O-])c1 | 234 to 237
C[Si](C)(C)C#Cc1ccc2c(c1)NC(=O)CO2 | 142
Cc1c(OCCn2ccnc2)ccc2c1CC/C(=C\c1cccs1)C2=O | 182 to 184
O=C1Nc2ccccc2N(C(=O)Cc2ccccc2)c2cscc21 | 165 to 168
COc1ccc(Oc2ccc(S(C)(=O)=O)cc2)cc1 | 152 to 153
CCCCNc1cc(CN)cc(S(N)(=O)=O)c1Oc1ccccc1 | 195 to 198
CCCCOC(C=Cc1ccc(C(=O)O)cc1)c1ccc2c(c1)C(C)(C)CCC2(C)C (racemic) | 78 to 80
CCC1(CCCCCBr)C(=O)Nc2ccc(C)cc21 (stereo unspecified) | 72 to 73
Cc1ccccc1-c1c(CS)n(C)c(=O)c2ccccc12 | 184 to 186
CC1Cc2ccc(Cl)cc2C(c2ccc([N+](=O)[O-])cc2)O1 (stereo unspecified) | 120 to 123
